Where two headings read alike, the source gives them in different places.
Legend:
Type in all cases: in vivo
Musca domestica = assay: Test Example 2: filter paper/sucrose bait test against housefly imagoes; details: read-out: rate of dead pests
Method: (§1) On the bottom of a polyethylene cup having a diameter of 5.5 cm, a filter paper having the same diameter was laid, and 0.7 ml of the above test solution was added dropwise on the filter paper, followed by putting 30 mg of sucrose on it uniformly as a bait. Ten female Musca domestica imagoes were set free in the polyethylene cup and covered it with a lid. After 24 hours, the number of surviving and dead Musca domestica was examined and the rate of dead pests was calculated.

Blattella germanica = assay: Test Example 3: filter paper/sucrose bait test against German cockroach imagoes; details: Blattella germanica, 144 h, read-out: rate of dead pests
Method: as §1, with “Two male Blattella germanica” for “Ten female Musca domestica”, “6 days,” for “24 hours,”, “Blattella germanica” for “Musca domestica”

Culex pipiens pallens = assay: Test Example 4: mosquito larvae test in treated water; details: 24 h, read-out: rate of dead pests
Method: 0.7 ml of above test solution was added to 100 ml of ion exchanged water (active ingredient concentration: 3.5 ppm). Twenty last-instar larvae of Culex pipiens pallens were set free in the solution. After one day, the number of surviving and dead Culex pipiens pallens was examined and the rate of dead pests was calculated.

[1] = 500 ppm test solution, 0.7 ml on filter paper with 30 mg sucrose, ten female imagoes, after 24 hours
[2] = 500 ppm test solution, 0.7 ml on filter paper with 30 mg sucrose, two male imagoes, after 6 days
[3] = active ingredient concentration 3.5 ppm in water, twenty last-instar larvae, after one day

SMILES | pest or weed control at 500 ppm (Musca domestica; 24 h) [%] | pest or weed control at 500 ppm (Blattella germanica) [%] | pest or weed control at 3.5 ppm (Culex pipiens pallens) [%] | pest or weed control at 500 ppm (Musca domestica; [1]) [%] | pest or weed control at 500 ppm (Blattella germanica; [2]) [%] | pest or weed control at 3.5 ppm (Culex pipiens pallens; [3]) [%]
N#CC(CC(F)(F)C(F)(F)C(F)(F)F)S(=O)(=O)CCC(F)(F)F (stereo not drawn) [(4)] | ≥ 70 | 100 | ≥ 90 |  |  | 
N#CC(CCC(F)(F)C(F)(F)F)S(=O)(=O)CCC(F)(F)F (stereo not drawn) [(3)] |  |  |  | ≥ 70 | 100 | ≥ 90
CN(C)C(=O)C(C)(CCC(F)(F)C(F)(F)F)S(=O)(=O)CCC(F)(F)F (stereo not drawn) [(36)] |  |  |  | ≥ 70 | 100 | ≥ 90
CC(CCC(F)(F)C(F)(F)F)(C(N)=O)S(=O)(=O)CCC(F)(F)C(F)(F)F (stereo not drawn) [(61)] |  |  |  | ≥ 70 | 100 | ≥ 90
COC(=O)C(CCC(F)(F)C(F)(F)F)[S+]([O-])CCC(F)(F)F (stereo not drawn) [(63)] |  |  |  | ≥ 70 | 100 | ≥ 90
NC(=O)C(CCC(F)(F)C(F)(F)F)S(=O)(=O)CCC(F)(F)C(F)(F)F (stereo not drawn) [(60)] |  |  |  | ≥ 70 | 100 | ≥ 90
COC(=O)C(C)(CCC(F)(F)C(F)(F)F)[S+]([O-])CCC(F)(F)F (stereo not drawn) [(71)] |  |  |  | ≥ 70 | 100 | ≥ 90
N#CC(CCC(F)(F)C(F)(F)F)S(=O)(=O)CCC(F)(F)C(F)(F)F (stereo not drawn) [(8)] |  |  |  | ≥ 70 | 100 | ≥ 90
N#CC(F)(CCC(F)(F)C(F)(F)F)S(=O)(=O)CCC(F)(F)F (stereo not drawn) [(20)] |  |  |  | ≥ 70 | 100 | ≥ 90
CC(CCC(F)(F)C(F)(F)F)(SCCC(F)(F)F)C(N)=O (stereo not drawn) [(70)] |  |  |  | ≥ 70 | 100 | ≥ 90
COC(=O)C(Br)(CCC(F)(F)C(F)(F)F)S(=O)(=O)CCC(F)(F)F (stereo not drawn) [(65)] |  |  |  | ≥ 70 | 100 | ≥ 90
CCC(CCC(F)(F)C(F)(F)F)(C(N)=O)S(=O)(=O)CCC(F)(F)F (stereo not drawn) [(38)] |  |  |  | ≥ 70 | 100 | ≥ 90
N#CC(CC(F)(F)C(F)(F)C(F)(F)F)S(=O)(=O)CCC(F)(F)C(F)(F)F (stereo not drawn) [(9)] | ≥ 70 | 100 | ≥ 90 |  |  | 

From patent US8017656B2, “Organic sulfur compounds and use thereof” (Sumitomo Chemical Company, Limited, priority 2005, dated 2011)
